Results from patent US9790180B2, “Piperidine derivatives as HDAC1/2 inhibitors” (Acetylon Pharmaceuticals, Inc., priority 2014, dated 2017).

What was measured:
HDAC1 = HDAC1 (Homo sapiens (Human), UniProt Q13547); assay: HDAC enzyme assay, HDAC1; format: biochemical; conditions: 24 hours pre-incubation with enzyme; read-out: IC50 (nM) HDAC1
Procedure: (§1) Compounds for testing were diluted in DMSO to 50 fold the final concentration and a ten point three fold dilution series was made. The compounds were diluted in assay buffer (50 mM HEPES, pH 7.4, 100 mM KCl, 0.001% Tween-20, 0.05% BSA, 20 μM tris(2-carboxyethyl)phosphine) to 6 fold their final concentration. The HDAC enzymes (purchased from BPS Biosciences) were diluted to 1.5 fold their final concentration in assay buffer and pre-incubated with the compounds for 24 hours prior to addition of the substrate.
(§2) The substrate tripeptide substrate 3 (synthesized in house) for each enzyme was equal to the Km as determined by a substrate titration curve. The substrates were diluted in assay buffer at 6× their final concentration with 0.3 μM sequencing grade trypsin (Sigma). The substrate/trypsin mix was added to the enzyme/compound mix, the plate was shaken for 60 seconds and placed into a Spectramax M5 microtiter plate reader. The development of fluorescence was monitored for 30 min and the linear rate of the reaction was calculated. The IC50 was determined using Graph Pad Prism by a four parameter curve fit. The IC50 values obtained for the compounds of this invention are found in Table 1. Examples of the curves are found in FIGS. 1 and 4.

HDAC2 = HDAC2 (Homo sapiens (Human), UniProt Q92769); assay: HDAC enzyme assay, HDAC2; format: biochemical; conditions: 24 hours pre-incubation with enzyme; read-out: IC50 (nM) HDAC2
Chain of HDAC2 (Q92769 whole entry): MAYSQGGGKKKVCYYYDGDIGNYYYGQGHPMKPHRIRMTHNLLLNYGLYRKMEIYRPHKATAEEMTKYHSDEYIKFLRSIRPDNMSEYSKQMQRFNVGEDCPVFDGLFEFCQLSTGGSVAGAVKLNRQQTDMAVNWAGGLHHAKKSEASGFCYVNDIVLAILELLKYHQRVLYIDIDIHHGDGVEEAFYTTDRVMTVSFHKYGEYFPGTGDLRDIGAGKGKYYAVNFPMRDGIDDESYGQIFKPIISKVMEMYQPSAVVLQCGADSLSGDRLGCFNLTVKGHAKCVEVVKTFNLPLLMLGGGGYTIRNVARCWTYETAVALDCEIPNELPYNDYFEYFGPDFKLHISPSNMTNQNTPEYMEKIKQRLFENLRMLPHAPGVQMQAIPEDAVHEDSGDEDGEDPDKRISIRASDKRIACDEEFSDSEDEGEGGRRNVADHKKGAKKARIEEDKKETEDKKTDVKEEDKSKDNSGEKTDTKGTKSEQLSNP
Procedure: as §1, §2

HDAC3 = HDAC3 (Homo sapiens (Human), UniProt O15379); assay: HDAC enzyme assay, HDAC3; format: biochemical; conditions: 24 hours pre-incubation with enzyme; read-out: IC50 (nM) HDAC3
Chain of HDAC3 (O15379 whole entry): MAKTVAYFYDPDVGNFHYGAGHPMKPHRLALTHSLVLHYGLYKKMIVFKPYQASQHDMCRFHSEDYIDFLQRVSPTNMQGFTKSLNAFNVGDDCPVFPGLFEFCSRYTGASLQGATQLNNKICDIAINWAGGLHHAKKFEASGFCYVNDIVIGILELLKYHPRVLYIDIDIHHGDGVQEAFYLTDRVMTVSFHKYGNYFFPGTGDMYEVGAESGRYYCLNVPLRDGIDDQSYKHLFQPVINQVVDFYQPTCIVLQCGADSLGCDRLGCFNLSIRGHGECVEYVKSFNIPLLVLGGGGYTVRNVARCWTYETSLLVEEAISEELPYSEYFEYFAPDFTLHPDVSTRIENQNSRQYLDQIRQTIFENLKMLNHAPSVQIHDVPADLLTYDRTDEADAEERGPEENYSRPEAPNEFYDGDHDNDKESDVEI
Chain of HDAC3 (Q9Y618 395-489 partner): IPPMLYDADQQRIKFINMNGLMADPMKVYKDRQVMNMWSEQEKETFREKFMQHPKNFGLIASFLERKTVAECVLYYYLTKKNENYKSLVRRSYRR
Procedure: as §1, §2

[1] = Rat cassette pharmacokinetics; format: in vivo; conditions: male, SD, plasma
Procedure: Male SD rats were fasted overnight. Compounds of the invention were dissolved in dimethyl acetamide at 10 times the final concentration, then Solutol HS 15 (BASF) was added to a final concentration of 10%. Finally 80% saline was added and vortexed to achieve a clear solution. For the IV dosing three animals were injected via the foot dorsal vein with 1 mg/kg compound. For the PO dosing 5 mg/kg of compound was delivered by oral gavage. Blood was collected via the tail vein into K2EDTA tubes at 5 minutes, 15 minutes, 30 minutes, 1 hour, 2 hours, 4 hours, 8 hours and 24 hours after dosing. The blood was centrifuged at 2000 g for 5 minutes at 4° C. to obtain plasma. The plasma was extracted with acetonitrile and the level of compound was analyzed by LC/MS/MS. The level of compound in plasma was calculated from a standard curve in rat plasma. The IV clearance and area under the curve were calculated using WinNonLin software. The dose adjusted area under the curve for the IV and oral dosing were used to calculate the oral bioavailability.

hERG channel = hERG channel (Homo sapiens (Human), UniProt Q12809); assay: hERG assay (QPatch, CHO cell line expressing hERG channels); format: cell-based; conditions: In vitro tox
Chain of hERG channel (Q12809 whole entry): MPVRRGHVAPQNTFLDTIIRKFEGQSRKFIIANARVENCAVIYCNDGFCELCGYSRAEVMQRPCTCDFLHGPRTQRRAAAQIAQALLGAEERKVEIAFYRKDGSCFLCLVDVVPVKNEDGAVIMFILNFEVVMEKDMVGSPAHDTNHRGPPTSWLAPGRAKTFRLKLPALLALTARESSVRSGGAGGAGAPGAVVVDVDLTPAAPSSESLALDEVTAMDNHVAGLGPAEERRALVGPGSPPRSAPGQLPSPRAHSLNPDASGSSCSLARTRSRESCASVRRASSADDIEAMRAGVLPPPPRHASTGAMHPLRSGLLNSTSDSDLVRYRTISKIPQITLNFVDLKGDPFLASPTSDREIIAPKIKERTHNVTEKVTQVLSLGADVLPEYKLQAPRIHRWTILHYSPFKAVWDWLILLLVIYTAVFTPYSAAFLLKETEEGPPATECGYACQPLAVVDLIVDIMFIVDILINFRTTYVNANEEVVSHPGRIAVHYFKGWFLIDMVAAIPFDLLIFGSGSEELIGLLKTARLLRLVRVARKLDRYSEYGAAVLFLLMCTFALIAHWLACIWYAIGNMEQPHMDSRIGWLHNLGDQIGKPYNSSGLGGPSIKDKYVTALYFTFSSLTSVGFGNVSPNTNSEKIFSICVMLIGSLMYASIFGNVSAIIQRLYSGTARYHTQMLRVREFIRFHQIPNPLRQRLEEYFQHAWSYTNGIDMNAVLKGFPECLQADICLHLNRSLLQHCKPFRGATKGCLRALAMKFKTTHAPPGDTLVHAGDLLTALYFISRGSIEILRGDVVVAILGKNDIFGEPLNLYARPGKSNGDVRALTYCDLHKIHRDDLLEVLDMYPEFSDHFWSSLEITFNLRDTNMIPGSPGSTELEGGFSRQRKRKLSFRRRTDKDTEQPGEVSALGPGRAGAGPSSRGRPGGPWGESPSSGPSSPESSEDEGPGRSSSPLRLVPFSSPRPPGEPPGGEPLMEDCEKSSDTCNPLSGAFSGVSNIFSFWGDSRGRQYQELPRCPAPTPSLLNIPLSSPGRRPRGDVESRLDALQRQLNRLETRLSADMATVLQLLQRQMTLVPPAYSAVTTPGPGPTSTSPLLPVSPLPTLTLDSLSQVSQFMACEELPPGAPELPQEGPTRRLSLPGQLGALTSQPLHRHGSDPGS
Procedure: For hERG assays, a CHO cell line stably transfected with hERG cDNA and expressing hERG channels were seeded into a QPatch plate (Sophion) at a density of 3-8×10^6 cells/ml. The cells were voltage clamped at a holding potential of −80 mV. The hERG current was activated by depolarizing at +20 mV for 5 sec, after which the current was taken back to −50 mV for 5 sec to remove the inactivation and observe the deactivating tail current. The maximum amount of tail current size was used to determine hERG current amplitude. Six doses (30, 10, 3, 1, 0.3 and 0.1 μM) of Compound 003 were chosen to obtain fitting curves and IC50. Data were analyzed using Assay Software provided by Sophion and Graphpad Prism.

[2] = tested on: CYP1A2, CYP2C9, CYP2C19, CYP3A4, CYP2D6; assay: Cyp inhibition in human liver microsomes; format: in vitro ADME; conditions: In vitro tox; human liver microsomes
Procedure: For Cyp inhibition, human live microsomes from BD Gentest were incubated with Compound 003 (10, 3.33, 1.11, 0.37, 0.12, 0.04, 0.01 μM) and substrate (CYP1A2: Phenacetin at 30 μM; CYP2C9: Diclofenac at 10 μM; CYP2C19: S-Mephenytoin at 35 μM; CYP3A4: Midazolam at 5 μM and Testosterone at 80 μM; CYP2D6: Bufuralol at 10 μM) for the following incubation times: CYP1A2, 2C9, 2D6: 10 minutes, 37° C.; CYP2C19: 45 minutes, 37° C.; CYP3A4: 5 minutes, 37° C. Substrate conversion was measured by liquid chromatography/mass spectrometry/mass spectrometry (LC/MS/MS). Inhibition was calculated by curve fitting in Graph Pad Prism.

[3] = rat cassette dosing, 5 mg/kg PO

Chain of HDAC1 (Q13547 whole entry): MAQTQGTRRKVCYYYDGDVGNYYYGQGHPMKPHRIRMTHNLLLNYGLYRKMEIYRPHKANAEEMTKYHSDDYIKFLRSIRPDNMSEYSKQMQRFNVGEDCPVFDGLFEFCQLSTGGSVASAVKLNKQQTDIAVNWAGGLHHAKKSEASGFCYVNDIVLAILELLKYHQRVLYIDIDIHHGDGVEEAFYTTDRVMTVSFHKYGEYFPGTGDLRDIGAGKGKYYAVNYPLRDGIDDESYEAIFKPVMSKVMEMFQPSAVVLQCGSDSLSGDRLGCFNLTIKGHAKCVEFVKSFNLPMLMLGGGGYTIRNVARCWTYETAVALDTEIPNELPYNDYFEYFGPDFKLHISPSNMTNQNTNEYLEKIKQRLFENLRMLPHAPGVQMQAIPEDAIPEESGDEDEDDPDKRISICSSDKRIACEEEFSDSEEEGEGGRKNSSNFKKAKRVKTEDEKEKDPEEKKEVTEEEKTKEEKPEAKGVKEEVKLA

IC50 (HDAC1) | IC50 (HDAC2) | IC50 (HDAC3) | Structure (SMILES) | further results
4.7 nM | 22 nM | 274 nM | Nc1ccc(-c2cccs2)cc1NC(=O)c1ccc(NC2CCN(C(=O)N3CCCC3)CC2)cc1 [Compound 006] | bioavailability ([1]; 5 mg/kg, rat, oral AUC to IV AUC, dose adjusted): 76%; AUC [1, 3]: 31600 ng·h/mL; Cmax [1, 3]: 1520 ng/mL; half-life ([1]; rat cassette dosing, 5 mg/kg PO, read-out: PO T½ (converted)): 14.5 h; CL renal ([1]; rat cassette dosing, IV 1 mg/kg, read-out: IV Clr. (converted)): 2.5 mL/min/kg; hERG (hERG channel): >30 µM; Cyp [2]: >10 µM
118 nM | 703 nM | 929 nM | CC1(Nc2ncc(C(=O)Nc3cc(-c4cccs4)ccc3N)cn2)CCN(C(=O)Oc2ccccc2)CC1 [Compound 007] | –
9 nM | 37 nM | 124 nM | CC1(Nc2ncc(C(=O)Nc3cc(-c4cccs4)ccc3N)cn2)CCN(C(=O)N2CCOCC2)CC1 [Compound 008] | –
32 nM | 145 nM | 250 nM | Nc1ccc(-c2cccs2)cc1NC(=O)c1cnc(NC2CCN(C(=O)N3CCCCC3)CC2)nc1 [Compound 009] | –
7.3 nM | 26 nM | – | CC1(Nc2ncc(C(=O)Nc3cc(-c4cccs4)ccc3N)cn2)CCN(C(=O)N2CCNCC2)CC1 [Compound 010] | –
8.5 nM | 32 nM | 201 nM | CN1CCN(C(=O)N2CCC(C)(Nc3ncc(C(=O)Nc4cc(-c5cccs5)ccc4N)cn3)CC2)CC1 [Compound 011] | –
19 nM | 177 nM | 1270 nM | CC1(Nc2ncc(C(=O)Nc3cc(-c4cccs4)ccc3N)cn2)CCN(C(=O)N2CCC(F)(F)CC2)CC1 [Compound 012] | –
4 nM | 14 nM | 412 nM | CC1(Nc2ccc(C(=O)Nc3cc(-c4cccs4)ccc3N)cc2)CCN(C(=O)N2CCCC2)CC1 [Compound 013] | –
63 nM | 299 nM | > 2000 nM | CC1(Nc2ncc(C(=O)Nc3cc(-c4cccs4)ccc3N)cn2)CCN(C(=O)N2CCC(O)CC2)CC1 [Compound 014] | –
3.2 nM | 12 nM | 149 nM | CC1(Nc2ccc(C(=O)Nc3cc(-c4cccs4)ccc3N)cc2)CCN(C(=O)N2CCNCC2)CC1 [Compound 015] | –
3.2 nM | 13 nM | 145 nM | CN1CCN(C(=O)N2CCC(C)(Nc3ccc(C(=O)Nc4cc(-c5cccs5)ccc4N)cc3)CC2)CC1 [Compound 016] | –
18 nM | 99 nM | 1740 nM | CCC1(Nc2ccc(C(=O)Nc3cc(-c4cccs4)ccc3N)cc2)CCN(C(=O)N2CCOCC2)CC1 [Compound 017] | –
12 nM | 78 nM | 516 nM | Nc1ccc(-c2cccs2)cc1NC(=O)c1cnc(N2CCCC23CCN(C(=O)N2CCCC2)CC3)nc1 [Compound 018] | –
3.7 nM | 17 nM | 304 nM | Nc1ccc(-c2cccs2)cc1NC(=O)c1ccc(NC2CCN(C(=O)N3CCOCC3)CC2)cc1 [Compound 020] | –
15 nM | 72 nM | 555 nM | Nc1ccc(-c2cccs2)cc1NC(=O)c1ccc(NC2CCN(C(=O)C3CCCCC3)CC2)cc1 [Compound 021] | –
5 nM | 18 nM | 203 nM | Nc1ccc(-c2cccs2)cc1NC(=O)c1ccc(NC2CCN(C(=O)C3CCOCC3)CC2)cc1 [Compound 022] | –
3.9 nM | 20 nM | 267 nM | CCC1(Nc2ccc(C(=O)Nc3cc(-c4cccs4)ccc3N)cc2)CCN(C(=O)N2CCNCC2)CC1 [Compound 023] | –

IC50 (HDAC1) | IC50 (HDAC2) | IC50 (HDAC3) | Structure (SMILES) | further results
6 nM | 26 nM | 287 nM | Nc1ccc(-c2cccs2)cc1NC(=O)c1ccc(NC2CCN(C(=O)C3(O)CCCCC3)CC2)cc1 [Compound 024] | –
7 nM | 26 nM | 355 nM | Nc1ccc(-c2cccs2)cc1NC(=O)c1ccc(NC2CCN(C(=O)C3(O)CCCC3)CC2)cc1 [Compound 025] | –
10 nM | 72 nM | 315 nM | CN1CCC(Nc2ncc(C(=O)Nc3cc(-c4cccs4)ccc3N)cn2)(c2ccccc2)CC1 [Compound 026] | –
121 nM | 690 nM | > 2000 nM | Nc1ccc(-c2cccs2)cc1NC(=O)c1cnc(NC2CCN(c3ccccc3)CC2)nc1 [Compound 027] | –
74 nM | 443 nM | > 2000 nM | Nc1ccc(-c2cccs2)cc1NC(=O)c1ccc(NC2CCN(c3ccccc3)CC2)cc1 [Compound 028] | –
– | 17 nM | 541 nM | CC1(Nc2ccc(C(=O)Nc3cc(-c4ccncc4)ccc3N)cc2)CCN(C(=O)N2CCOCC2)CC1 [Compound 029] | –
7.1 nM | 9.4 nM | 466 nM | CC1(Nc2ccc(C(=O)Nc3cc(-c4ccncc4)ccc3N)cc2)CCN(C(=O)N2CCCC2)CC1 [Compound 030] | –
91 nM | 71 nM | 264 nM | CC1(Nc2ccc(C(=O)Nc3cc(-c4cccnc4)ccc3N)cc2)CCN(C(=O)N2CCOCC2)CC1 [Compound 031] | –
17 nM | 20 nM | 397 nM | Nc1ccc(-c2ccncc2)cc1NC(=O)c1ccc(NC2CCN(C(=O)N3CCCC3)CC2)cc1 [Compound 032] | –
93 nM | 346 nM | > 2000 nM | Nc1ccc(-c2ccccc2)cc1NC(=O)c1cnc(N(c2ccccc2)C2CCN(C(=O)Cc3c[nH]c4ccccc34)CC2)nc1 [Compound 034] | –
74 nM | 996 nM | > 2000 nM | Cc1[nH]c2ccccc2c1CC(=O)N1CCC(N(c2ccccc2)c2ncc(C(=O)Nc3cc(-c4ccccc4)ccc3N)cn2)CC1 [Compound 036] | –
432 nM | 377 nM | 1860 nM | CC1(Nc2ccc(C(=O)Nc3cc(-c4ccccc4)ccc3N)cc2C2CC2)CCN(C(=O)N2CCOCC2)CC1 [Compound 037] | –
101 nM | 319 nM | > 2000 nM | Nc1ccc(-c2ccccc2)cc1NC(=O)c1cnc(NC2CCNc3ccccc32)nc1 (centres unmarked) [Compound 038] | –
17 nM | 59 nM | 321 nM | Nc1ccc(-c2ccccc2)cc1NC(=O)c1cnc(NC2CCNCC2)nc1 [Compound 039] | –
8 nM | 39 nM | 277 nM | CN1CCC(Nc2ncc(C(=O)Nc3cc(-c4ccccc4)ccc3N)cn2)CC1 [Compound 040] | –
210 nM | 714 nM | > 2000 nM | CN1CCC(Nc2ncc(C(=O)Nc3cc(-c4ccccc4)ccc3N)cn2)c2ccccc21 (centres unmarked) [Compound 042] | –
